Data on eight compounds can be found in patent US7964598B2 (The J. David Gladstone Institutes, priority 1995, dated 2011).

The subject of assay [1] is apoE3. Kind of assay: Aβ production assay, B103-APP cells incubated with apoE3. The class given is cell-based, rat. As to conditions: FIG. 22. How it is done:
(§1) Aβ production assay. Stable neuroblastoma B103 cell lines transfected with a wildtype hAPP cDNA construct (B 103-APP) were selected by growing them in Dulbecco's modified Eagle's medium (DMEM) containing 10% fetal calf serum (FBS) and 400 μg/ml G418. A cell line expressing APP at similar levels in mouse brains has been identified by RNase protection assay (RPA) and was used in the studies described below. To determine Aβ production, B103-APP cells were incubated with serum-free minimal essential medium (MEM) containing N2 supplements with or without apoE isoforms for 24 h at 37° C. After incubation, 50 μl of medium was collected and assayed for Aβ levels with an ELISA method. The cells were lysed, and cellular proteins were determined by the Lowry method. AP production was normalized to cellular protein.
(§2) Cell Culture. Rat neuroblastoma B103 cells stably expressing human wildtype APP (hAPP695wt) (Xu et al. ((1999) Proc. Natl. Acad. Sci. USA 96:7547-7552; Esposito, et al. (2004) J. Neurochem. 91:1260-1274) were generated in Dr. Lennart Mucke's laboratory at the Gladstone Institute of Neurological Disease and maintained in Dulbecco's modified Eagle's medium (DMEM) (GIBCO, Grand Island, N.Y.) containing 400 μg/ml G418, 10% fetal bovine serum, and 5% horse serum at 37° C. Twenty-four hours after plating into 48-well plates (1×10^5 cells per well), cells were washed twice with serum-free DMEM and cultured for another 24 h in DMEM containing 1% N-2 supplement (GIBCO) to induce differentiation. The cells were treated with either β-VLDL (25 μg/ml cholesterol), recombinant human apoE isoform-enriched β-VLDL (7.5 μg/ml apoE and 25 μg/ml cholesterol), or recombinant human apoE (7.5 μg/ml apoE) in fresh DMEM containing 1% N-2 supplement for an additional 24 h. In some experiments, RAP (25 nM or 1 μM) was added to the cells 1 h before apoE treatment.
(§3) Aβ Assay. Aβ secreted into the medium was detected with a sandwich enzyme-linked immunosorbent assay (ELISA), using mAb 266 as a capturing antibody and 3D6 as a detecting antibody, as described. Johnson-Wood et al. ((1997) Proc. Natl. Acad. Sci. USA 94:1550-1555). Aβ was quantified from a standard curve (Aβ42; Bachem, Torrance, Calif.) and normalized by total cellular protein.

The test system of assay [2] is apoE4 enhancement of Aβ production. Description: Aβ production assay, B103-APP cells incubated with apoE4. The class given is cell-based, rat. Particulars: FIG. 22. As to the method: as §1, §2, §3
Assay [3] addresses T1, apoE3 (Homo sapiens, UniProt P02649).
T1 construct: made in house
Kind of assay: Emulsion binding assay, apoE3. Particulars: follow-up assay. How it is done: (§4) Preparation of emulsion particles. Triolein (160 mg) and L-alpha-Phosphatidylcholine (40 mg) are combined and dried under nitrogen. After the addition of 8 mls of buffer (10 mM Tris, 100 mM KCl, 1 mM EDTA, pH 8.0), the mixture is sonicated in a water bath to obtain a heterogeneous mix of emulsion particles. The particles are harvested by ultracentrifugation (TLA 100.2 rotor, 30,000 rpm for 30 minutes) and the subsequent lipid cake is removed by tube slicing and resuspended in 100 μt 20 mM Phosphate Buffer (PB). Triolein and phospholipid content are measured and total emulsion particle concentration is determined.
(§5) Radiolabelling Freshly denatured and renatured Apolipoprotein E3 and E4 are radiolabelled using Bolton-Hunter Reagent [^125I] (ICN). Specific Activity is determined using Lowry method and Gamma 8000 counter.
(§6) Binding Affinity Assay. […] In glass tubes, 25 μg of protein (with iodinated tracer) was reduced with 1% β-mercaptoethanol. Two hundred and fifty μg of emulsion particles and 2.5 μl of compound (10 mM stock) were added and the final mixture was brought up to 250 μl with 20 mM phosphate buffer (PB). The reaction mixture was then incubated in a 37° C. water bath for 2 hours before being transferred to 1.5 ml ultracentrifuge tubes. Finally, 50 μl of 60% sucrose was mixed with the sample and 400 μl 20 mM PB was carefully layered on top. Using a TLA 100.2 rotor, the tube was spun at 30,000 rpm for 30 minutes and subsequently cut to separate the floating emulsion particle layer from the free protein at the bottom of the tube. These fractions were then combined with the respective half of the actual tube and counted using a Gamma-8000. […] Protein-only assays yielded 94.5-96.6% of protein accumulated in the bottom portion of the tube. In emulsion particle-only assays, 94% of emulsion particles accumulated in the top portion of the tube.
(§7) Preparation of Emulsion Particles and VLDL Binding Affinity Assay. VLDL-like emulsion particles were prepared using triolein (160 mg) and L-alpha-phosphatidylcholine (40 mg), as described. Dong and Weisgraber (1996) supra; and Dong et al. (1994) J. Biol. Chem. 269:22358-22365.

A further assay deals with T2, apoE4 (Homo sapiens, UniProt P02649, C130R).
T2 construct: made in house
T2 sequence (P02649 19-317 C130R): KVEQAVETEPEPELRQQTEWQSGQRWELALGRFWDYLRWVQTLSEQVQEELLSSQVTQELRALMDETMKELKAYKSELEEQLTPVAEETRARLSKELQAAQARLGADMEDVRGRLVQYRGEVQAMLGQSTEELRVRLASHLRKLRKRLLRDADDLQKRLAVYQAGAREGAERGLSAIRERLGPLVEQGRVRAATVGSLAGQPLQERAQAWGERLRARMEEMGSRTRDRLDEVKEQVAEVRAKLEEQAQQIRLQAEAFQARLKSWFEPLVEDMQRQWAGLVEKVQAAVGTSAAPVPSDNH
Description: Emulsion binding assay for domain interaction, apoE4. As to conditions: for E4 + cpd n = 3, % bound / E4 + cpd n = 3, % free / E4 control, % bound / E4 control, % free: follow-up assay; for E4 control, % bound / E4 control, % free: second E4 control; for E4 + cpd, % bound / E4 + cpd, % free: initial assay, 2.5 μl of compound (10 mM stock) in 250 μl, 37° C. 2 hours. How it is done: as §4, §5, §6, §7

For a further assay, the system named is B103-APP cells. Description: APP processing and Aβ production, B103-APP cells. Type of assay: cell-based, rat. How it is done: as §1, §2
In some experiments, cells were treated with lovastatin, as described but with a minor modification. Fassbender et al. (2001) Proc. Natl. Acad. Sci. USA 98:5856-5861. Briefly, cells were maintained in differentiation medium containing 4 μM lovastatin and 0.25 mM mevalonate for 24 h. After treatment for 5 min with 5 mM methyl-β-cyclodextrin, which depletes cell membrane cholesterol (Bodovitz and Klein (1996) J. Biol. Chem. 271:4436-4440; Kojro et al. (2001) Proc. Natl. Acad. Sci. USA 98:5815-5820), the cells were incubated in fresh differentiation medium containing lovastatin and mevalonate for 24 h. The conditioned medium was collected, and cellular cholesterol extracted with chloroform/methanol (Huang et al. (1994) Proc. Natl. Acad. Sci. USA 91:1834-1838) and quantitated with a kit from Abbott Laboratories (Abbott Park, Ill.).
Detection of sAPPα. Media conditioned for 24 hours were normalized by protein content and subjected to SDS/PAGE. Proteins were then transferred onto nitrocellulose membranes. The sAPPα was detected by mAb 6E10 and visualized with an enhanced chemiluminescence system (Pierce, Rockford, Ill.).
as §3

Assay [4] relates to Neuro-2a cells. Kind of assay: Aβ-induced apoptosis (DNA fragmentation assay). Type of assay: cell-based, mouse. As to the method: DNA Fragmentation Assay—DNA fragmentation of apoptotic cells was determined with Cell Death Detection ELISA kits (Roche, Indianapolis, Ind.).
FIG. 38. […] Control cells were not treated with Aβ1-42. Apoptotic cell death was measured with a DNA fragmentation assay. Values are the mean±S.D. of three separate experiments.
FIGS. 39A and 39B. […] Lysosomal leakage was quantitated by assaying cytosolic 0-hexosaminidase activity. […] Conditioned media were prepared as described above. Apoptosis was quantitated by measuring DNA fragmentation.

Assay [5] relates to Neuro-2a cells. Kind of assay: Aβ-induced lysosomal leakage (cytosolic β-hexosaminidase). The class given is cell-based, mouse. Particulars: 20 μM Aβ1-42. How it is done: The cytosolic fraction was obtained by ultracentrifugation, and the cytosolic β-hexosaminidase activity was measured.
Quantitation of the lysosomal enzyme β-hexosaminidase activity in the cytosol indicates lysosomal leakage. […] After incubation the cells were washed and cytosolic fractions were isolated as described in Materials and Methods. The enzymatic activity of β-hexosaminidase was assayed in 20 μg of cytosolic protein for each sample.
Lysosomal leakage was quantitated by assaying cytosolic 0-hexosaminidase activity. […] Conditioned media were prepared as described above. Apoptosis was quantitated by measuring DNA fragmentation.

Setting [6] is: β-VLDL 25 μg/ml cholesterol or lovastatin 4 μM.

“And” between values parts separate entries of the source, which are not always exact repeats. Identical values can stand only once.

T1 sequence (P02649 19-317): as the sequence (P02649 19-317 C130R) above, with R112C counted along it

With “5-chloro-2-(4-chloro-2-(3,4-dichloro phenylureido) [GIND32]”, the “effect on apoE3 (Aβ production)” value with apoE3 [1] is given as “no effect”. Besides, the “apoE4 enhancement of Aβ production” value in assay [2] was “abolished completely”. For the same compound, at apoE3 [3], the “E3 + compound, % bound” value is 14% and the “E3 + compound, % free” value came to 86%. For the same compound, at apoE4, the “E4 + cpd n = 3, % bound” value is listed as 57%; the “E4 + cpd n = 3, % free” value is 43%; the “E4 control, % bound” value turned out to be 49%; the “E4 control, % free” value was 51%. On apoE4, the “E4 + cpd, % bound” value is 22% and 19%; the “E4 + cpd, % free” value was 78% and 81%.

As to `O.O=C([O-])c1ccccc1-c1c2cc(I)c(=O)c(I)c-2oc2c(I)c([O-])c(I)cc12.[Na+].[Na+]` [Erythrosin B], at apoE3 [3], the “E3 + compound, % bound” value stood at 20% and the “E3 + compound, % free” value turned out to be 80%. At apoE4, the “E4 + cpd n = 3, % bound” value is 57%; the “E4 + cpd n = 3, % free” value was 43%; the “E4 control, % bound” value stood at 26%; the “E4 control, % free” value is reported as 74%. Further, on apoE4, the “E4 + cpd, % bound” value was 11% and 10%; the “E4 + cpd, % free” value is 89% and 90%.

`O=C(N[C@H](Cc1ccc(OCc2ccccc2)cc1)C(=O)O)OCc1ccccc1` [Z-D-Tyr (BZL)-OH]: at apoE3 [3], the “E3 + compound, % bound” value is on record as 26% and the “E3 + compound, % free” value is 74%. Also, at apoE4, the “E4 + cpd n = 3, % bound” value is reported as 57%; the “E4 + cpd n = 3, % free” value worked out at 43%; the “E4 control, % bound” value was 43%; the “E4 control, % free” value is recorded as 57%. In addition, on apoE4, the “E4 + cpd, % bound” value is 25% and 23%; the “E4 + cpd, % free” value is 75% and 77%.

For `CC[C@H](C)C(=O)O[C@H]1C[C@@H](C)C=C2C=C[C@H](C)[C@H](CC[C@@H]3C[C@@H](O)CC(=O)O3)[C@H]21` [lovastatin, reference compound], in the assay on B103-APP cells (setting [6]), the cellular cholesterol content entry was “lowered”, the “production of Aβ” value was “decreased” and the “secretion of sAPPα” value was “increased”.

In the case of “Aβ1-42: Amyloid β1-42, aggregated before use”, the DNA fragmentation is given as 110 % of that in Z-VAD-treated con with Neuro-2a cells [4] (apoE3-transfected cells, 20 μM Aβ1-42, 18 h); ~250 % of that in Z-VAD-treated con in the assay on Neuro-2a cells [4] (apoE4-transfected cells, 20 μM Aβ1-42, 18 h); ~140 % of that in Z-VAD-treated con with Neuro-2a cells [4] (neo-transfected cells, 20 μM Aβ1-42, 18 h). Further, the “Aβ-induced DNA fragmentation” value is 202% in the assay with Neuro-2a cells [4] (neo-transfected cells in apoE3-conditioned medium, 20 μM Aβ1-42, 18 h); 314% in the assay with Neuro-2a cells [4] (neo-transfected cells in apoE4-conditioned medium, 20 μM Aβ1-42, 18 h); 232% with Neuro-2a cells [4] (neo-transfected cells in neo-conditioned medium, 20 μM Aβ1-42, 18 h). Besides, the “increase of cytosolic β-hexosaminidase activity” value in the assay on Neuro-2a cells [5] (apoE4-transfected cells) was around 85%; in the assay on Neuro-2a cells [5] (neo-transfected cells), around 40%.

With Z-VAD, in the assay with Neuro-2a cells [4] (compared with untreated control cells), the “DNA fragmentation, Z-VAD treatment alone” value was “no effect”. Besides, in the assay with Neuro-2a cells [4] (pretreatment with Z-VAD 100 μg/ml 2 h, all three cell lines), the “Aβ-induced DNA fragmentation” value is given as “greatly reduced”.

“apoE4-Thr-61: Thr-61 mutant of apoE4, lacks intramolecular domain interaction”: in the assay with B103-APP cells (7.5 μg/ml, 37° C., 24 h, compared with apoE3 or apoE4), the “enhanced Aβ production” value is reported as “abolished the enhanced Aβ production”.

On to glycine cresol red [GIND29], for which the “effect on apoE3 (Aβ production)” value with apoE3 [1] was “no effect”. Also, the “apoE4 enhancement of Aβ production” value in assay [2] is listed as “abolished completely”. Also, at apoE3 [3], the “E3 + compound, % bound” value stood at 33% and the “E3 + compound, % free” value was found to be 67%. At apoE4, the “E4 + cpd n = 3, % bound” value came to 57%; the “E4 + cpd n = 3, % free” value worked out at 43%; the “E4 control, % bound” value is 48%; the “E4 control, % free” value was determined as 52%. Further, at apoE4, the “E4 + cpd, % bound” value was 23% and 29%; the “E4 + cpd, % free” value was 77% and 71%.
